Assay results from patent US20230167073A1 (Teijin Pharma Limited, priority 2020, published 2023).

biological target: T1, Human TRPC6 (Homo sapiens, UniProt Q9Y210); assay: Evaluation of TRPC6 channel inhibitory activity (1), FLIPR Calcium 5 Assay Kit, OAG stimulation (Compound Nos. 1-1293); assay type: cell-based; settings: Human TRPC6 stably-expressing cells, OAG 30 μM, FLIPR Calcium 5 Assay Kit; read-out: Inhibitory activity (pIC50 class) (converted)
T1 construct: expressed in transfected cells
T1 sequence (Q9Y210 1-931): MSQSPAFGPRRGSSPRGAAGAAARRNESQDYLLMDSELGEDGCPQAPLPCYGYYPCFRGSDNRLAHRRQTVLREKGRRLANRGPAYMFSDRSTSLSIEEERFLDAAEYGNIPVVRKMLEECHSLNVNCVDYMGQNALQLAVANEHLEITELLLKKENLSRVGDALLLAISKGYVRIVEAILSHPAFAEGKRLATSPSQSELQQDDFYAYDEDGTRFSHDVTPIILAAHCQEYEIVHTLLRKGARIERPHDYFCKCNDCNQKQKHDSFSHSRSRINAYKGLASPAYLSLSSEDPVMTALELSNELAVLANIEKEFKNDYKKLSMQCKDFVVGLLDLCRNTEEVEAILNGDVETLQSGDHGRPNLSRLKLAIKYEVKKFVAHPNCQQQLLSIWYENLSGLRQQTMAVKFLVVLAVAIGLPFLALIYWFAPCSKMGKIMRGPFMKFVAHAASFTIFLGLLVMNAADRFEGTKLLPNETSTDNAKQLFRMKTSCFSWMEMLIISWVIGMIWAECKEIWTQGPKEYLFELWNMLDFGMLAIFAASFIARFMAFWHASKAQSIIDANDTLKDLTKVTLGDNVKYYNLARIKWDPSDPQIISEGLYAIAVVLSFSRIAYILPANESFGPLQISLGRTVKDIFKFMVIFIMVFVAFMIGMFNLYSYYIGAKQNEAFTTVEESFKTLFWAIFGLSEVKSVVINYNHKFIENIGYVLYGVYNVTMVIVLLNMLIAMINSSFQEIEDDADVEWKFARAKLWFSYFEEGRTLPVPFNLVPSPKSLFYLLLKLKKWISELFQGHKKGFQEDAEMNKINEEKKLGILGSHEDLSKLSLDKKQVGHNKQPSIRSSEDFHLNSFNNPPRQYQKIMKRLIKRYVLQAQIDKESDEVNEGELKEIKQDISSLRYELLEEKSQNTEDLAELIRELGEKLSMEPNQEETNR
Procedure, shortened: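 Readout is pIC50 from four-parameter logistic fitting of inhibition of the OAG-evoked (30 μM final) fluorescence calcium signal. Human TRPC6 stable cells are dye-loaded with probenecid, and compound is applied 20 min ahead of agonist.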

| IC50 [nM] | Compound |
| --- | --- |
| > 1000 | N#Cc1ccc(-c2ccc(CCN)nc2)c(Oc2cc(N3CCCCC3)cnn2)c1 [Compound 81, 4-[6-(2-aminoethyl)pyridin-3-yl]-3-(5-piperidin-1-ylpyridazin-3-yl)oxybenzonitrile] |
| < 10 | N#Cc1ccc(-c2ccc(C(O)CN)cc2)c(Oc2cnnc(-c3ccccc3)c2)c1 (centres unmarked) [Compound 82, 4-[4-(2-amino-1-hydroxyethyl)phenyl]-3-(6-phenylpyridazin-4-yl)oxybenzonitrile] |
| > 1000 | N#Cc1ccc(-c2ccc(C3(CN)CC3)cc2)c(Oc2cnnc(-c3ccccc3)c2)c1 [Compound 83, 4-[4-[1-(aminomethyl)cyclopropyl]phenyl]-3-(6-phenylpyridazin-4-yl)oxybenzonitrile] |
| 10 to 1000 | N#Cc1ccc(-c2ccc(CCN)cc2)c(Oc2cnnc(-c3cccc(F)c3C#N)c2)c1 [Compound 84, 2-[5-[2-[4-(2-aminoethyl)phenyl]-5-cyanophenoxy]pyridazin-3-yl]-6-fluorobenzonitrile] |
| 10 to 1000 | Cc1nc(Oc2cc(C#N)ccc2-c2ccc(CCN)cn2)cc(N2CCOCC2)n1 [Compound 85, 4-[5-(2-aminoethyl)pyridin-2-yl]-3-(2-methyl-6-morpholin-4-ylpyrimidin-4-yl)oxybenzonitrile] |
| 10 to 1000 | Cc1nc(Oc2cc(C#N)ccc2-c2ccc(CCN)cn2)cc(-c2ccccc2)n1 [Compound 86, 4-[5-(2-aminoethyl)pyridin-2-yl]-3-(2-methyl-6-phenylpyrimidin-4-yl)oxybenzonitrile] |
| > 1000 | N#Cc1ccc(-c2ccc(CCN)cn2)c(Oc2cnnc(Cl)c2)c1 [Compound 87, 4-[5-(2-aminoethyl)pyridin-2-yl]-3-(6-chloropyridazin-4-yl)oxybenzonitrile] |
| > 1000 | N#Cc1ccc(-c2ccc(CCN)cn2)c(Oc2cc(Cl)cnn2)c1 [Compound 88, 4-[5-(2-aminoethyl)pyridin-2-yl]-3-(5-chloropyridazin-3-yl)oxybenzonitrile] |
| > 1000 | N#Cc1ccc(-c2ccc(CCN)cn2)c(Oc2cnnc(N3CCOCC3)c2)c1 [Compound 89, 4-[5-(2-aminoethyl)pyridin-2-yl]-3-(6-morpholin-4-ylpyridazin-4-yl)oxybenzonitrile] |
| 10 to 1000 | N#Cc1ccc(-c2ccc(CCN)cn2)c(Oc2cnnc(N3CCCCC3)c2)c1 [Compound 90, 4-[5-(2-aminoethyl)pyridin-2-yl]-3-(6-piperidin-1-ylpyridazin-4-yl)oxybenzonitrile] |
| > 1000 | N#Cc1ccc(-c2ccc(CCN)cn2)c(Oc2cc(N3CCOCC3)cnn2)c1 [Compound 91, 4-[5-(2-aminoethyl)pyridin-2-yl]-3-(5-morpholin-4-ylpyridazin-3-yl)oxybenzonitrile] |
| > 1000 | N#Cc1ccc(-c2ccc(CCN)cn2)c(Oc2cc(N3CCCCC3)cnn2)c1 [Compound 92, 4-[5-(2-aminoethyl)pyridin-2-yl]-3-(5-piperidin-1-ylpyridazin-3-yl)oxybenzonitrile] |
| < 10 | N#Cc1ccc(-c2ccc(CCN)cc2)c(Oc2cnnc(-c3ccccc3C#N)c2)c1 [Compound 93, 4-[4-(2-aminoethyl)phenyl]-3-[6-(2-cyanophenyl)pyridazin-4-yl]oxybenzonitrile] |
| > 1000 | N#Cc1ccc(-c2ccc(CCN)cc2)c(Oc2cnnc(-c3ccccc3C(N)=O)c2)c1 [Compound 94, 2-[5-[2-[4-(2-aminoethyl)phenyl]-5-cyanophenoxy]pyridazin-3-yl]benzamide] |
| > 1000 | Cc1nc(Oc2cc(C#N)ccc2-c2ccc3c(c2)CNCC3)cc(N2CCOCC2)n1 [Compound 95, 3-(2-methyl-6-morpholin-4-ylpyrimidin-4-yl)oxy-4-(1,2,3,4-tetrahydroisoquinolin-7-yl)benzonitrile] |
| > 1000 | Cc1nc(Oc2cc(C#N)ccc2-c2ccc(C(O)CN(C)C)cc2)cc(-c2ccccc2)n1 (centres unmarked) [Compound 96, 4-[4-[2-(dimethylamino)-1-hydroxyethyl]phenyl]-3-(2-methyl-6-phenylpyrimidin-4-yl)oxybenzonitrile] |

| IC50 [nM] | Compound |
| --- | --- |
| > 1000 | Cc1nc(Oc2cc(C#N)ccc2-c2ccc(C(O)CN3CCCC3)cc2)cc(-c2ccccc2)n1 (centres unmarked) [Compound 97, 4-[4-(1-hydroxy-2-pyrrolidin-1-ylethyl)phenyl]-3-(2-methyl-6-phenylpyrimidin-4-yl)oxybenzonitrile] |
| > 1000 | Cc1nc(Oc2cc(C#N)ccc2-c2nc(C)c(C(O)CN(C)C)s2)cc(-c2ccccc2)n1 (centres unmarked) [Compound 98, 4-[5-[2-(dimethylamino)-1-hydroxyethyl]-4-methyl-1,3-thiazol-2-yl]-3-(2-methyl-6-phenylpyrimidin-4-yl)oxybenzonitrile] |
| > 1000 | Cc1nc(Oc2cc(C#N)ccc2-c2nc(C(O)CN(C)C)c(C)n2C)cc(-c2ccccc2)n1 (centres unmarked) [Compound 99, 4-[4-[2-(dimethylamino)-1-hydroxyethyl]-1,5-dimethylimidazol-2-yl]-3-(2-methyl-6-phenylpyrimidin-4-yl)oxybenzonitrile] |
| < 10 | CCOC(CN)c1ccc(-c2ccc(C#N)cc2Oc2cc(N3CCOCC3)nc(C)n2)cc1 (centres unmarked) [Compound 100, 4-[4-(2-amino-1-ethoxyethyl)phenyl]-3-(2-methyl-6-morpholin-4-ylpyrimidin-4-yl)oxybenzonitrile] |
| < 10 | Cc1nc(Oc2cc(C#N)ccc2-c2ccc(C(CN)C(F)(F)F)cc2)cc(N2CCOCC2)n1 (centres unmarked) [Compound 101, 4-[4-(3-amino-1,1,1-trifluoropropan-2-yl)phenyl]-3-(2-methyl-6-morpholin-4-ylpyrimidin-4-yl)oxybenzonitrile] |
| 10 to 1000 | N#Cc1ccc(-c2ccc(CCN)nc2)c(Oc2cnnc(-c3ccccc3)c2)c1 [Compound 102, 4-[6-(2-aminoethyl)pyridin-3-yl]-3-(6-phenylpyridazin-4-yl)oxybenzonitrile] |
| 10 to 1000 | N#Cc1ccc(-c2ccc(CCN)cn2)c(Oc2cnnc(-c3ccccc3)c2)c1 [Compound 103, 4-[5-(2-aminoethyl)pyridin-2-yl]-3-(6-phenylpyridazin-4-yl)oxybenzonitrile] |
| > 1000 | Cc1nc(Oc2cc(C#N)ccc2-n2cc(C(O)CN(C)C)cn2)cc(-c2ccccc2)n1 (centres unmarked) [Compound 104, 4-[4-[2-(dimethylamino)-1-hydroxyethyl]pyrazol-1-yl]-3-(2-methyl-6-phenylpyrimidin-4-yl)oxybenzonitrile] |
| > 1000 | Cc1nc(Oc2cc(C#N)ccc2-n2cc(C(O)CN(C)C)cn2)cc(N2CCOCC2)n1 (centres unmarked) [Compound 105, 4-[4-[2-(dimethylamino)-1-hydroxyethyl]pyrazol-1-yl]-3-(2-methyl-6-morpholin-4-ylpyrimidin-4-yl)oxybenzonitrile] |
| > 1000 | Cc1nc(Oc2cc(C#N)ccc2-c2ccc(C(O)CN(C)C)cc2)cc(N2CCOCC2)n1 (centres unmarked) [Compound 106, 4-[4-[2-(dimethylamino)-1-hydroxyethyl]phenyl]-3-(2-methyl-6-morpholin-4-ylpyrimidin-4-yl)oxybenzonitrile] |
| 10 to 1000 | N#Cc1ccc(-c2ccc(CCN)cc2)c(Oc2cnnc(OC3CCCC3)c2)c1 [Compound 107, 4-[4-(2-aminoethyl)phenyl]-3-(6-cyclopentyloxypyridazin-4-yl)oxybenzonitrile] |
| 10 to 1000 | CC(C)(C)COc1cc(Oc2cc(C#N)ccc2-c2ccc(CCN)cc2)cnn1 [Compound 108, 4-[4-(2-aminoethyl)phenyl]-3-[6-(2,2-dimethylpropoxy)pyridazin-4-yl]oxybenzonitrile] |
| > 1000 | N#Cc1ccc(-c2ccc(CCN)cc2)c(Oc2cnnc(OCC(F)(F)F)c2)c1 [Compound 109, 4-[4-(2-aminoethyl)phenyl]-3-[6-(2,2,2-trifluoroethoxy)pyridazin-4-yl]oxybenzonitrile] |
| > 1000 | Cc1noc(C)c1-c1cc(Oc2cc(C#N)ccc2-c2ccc(CCN)cc2)cnn1 [Compound 110, 4-[4-(2-aminoethyl)phenyl]-3-[6-(3,5-dimethyl-1,2-oxazol-4-yl)pyridazin-4-yl]oxybenzonitrile] |
| 10 to 1000 | Cn1nc(C(F)(F)F)cc1-c1cc(Oc2cc(C#N)ccc2-c2ccc(CCN)cc2)cnn1 [Compound 111, 4-[4-(2-aminoethyl)phenyl]-3-[6-[2-methyl-5-(trifluoromethyl)pyrazol-3-yl]pyridazin-4-yl]oxybenzonitrile] |
| < 10 | Cc1nc(Oc2cc(C#N)ccc2-c2ccc(CCN)cc2)cc(N2CCC[C@H]2C#N)n1 [Compound 112, (2S)-1-[6-[2-[4-(2-aminoethyl)phenyl]-5-cyanophenoxy]-2-methylpyrimidin-4 yl]pyrrolidine-2-carbonitrile] |
